Measurements taken from publication PMC6556873, “Rapid Covalent-Probe Discovery by Electrophile-Fragment Screening” (Journal of the American Chemical Society, 2019).
Where two headings read alike, the source gives them in different places.

Assays:
[1] = in vitro; parameters: species or system HB2, CCD841; conditions: human, hek293 cells
[2] = molecular target: T1, NNMT (hNNMT) (Homo sapiens, UniProt P40261); parameters: Intact protein LC/MS covalent labelling, fragments in pools of five, 200 uM each, 4 °C; conditions: 24 h, 4 °C, pool of five; 200 µM; covalent
T1 construct: wild type, N-terminal His6 tag kept (no cleavage described), E. coli, construct 31248 Da
T1 sequence (P40261 1-264): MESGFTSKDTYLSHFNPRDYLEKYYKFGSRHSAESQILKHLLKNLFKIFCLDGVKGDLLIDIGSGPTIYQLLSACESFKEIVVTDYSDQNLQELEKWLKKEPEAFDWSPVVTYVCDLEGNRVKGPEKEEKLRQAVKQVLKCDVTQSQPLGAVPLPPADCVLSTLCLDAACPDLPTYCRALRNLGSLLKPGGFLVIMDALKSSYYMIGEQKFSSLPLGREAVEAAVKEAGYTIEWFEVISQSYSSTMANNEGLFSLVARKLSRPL

[3] = molecular target: T2, NUDT7 (Homo sapiens, UniProt P0C024); parameters: Intact protein LC/MS covalent labelling, fragments in pools of five, 200 uM each, 4 °C; conditions: 24 h, 4 °C, pool of five; 200 µM; covalent
T2 construct: residues 14-235, E. coli, pNIC28-Bsa4, N-terminal His6 tag removed by TEV, construct 26672 Da
T2 sequence (P0C024 14-235): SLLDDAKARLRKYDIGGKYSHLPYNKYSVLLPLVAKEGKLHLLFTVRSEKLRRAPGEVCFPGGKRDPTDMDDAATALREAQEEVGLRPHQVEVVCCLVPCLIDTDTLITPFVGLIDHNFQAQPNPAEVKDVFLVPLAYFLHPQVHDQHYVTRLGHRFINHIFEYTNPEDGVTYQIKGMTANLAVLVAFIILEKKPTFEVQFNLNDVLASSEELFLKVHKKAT

[4] = molecular target: T3, BSA (Bos taurus, UniProt P02769); parameters: Intact protein LC/MS covalent labelling, fragments in pools of five, 200 uM each, 4 °C; conditions: 24 h, 4 °C, pool of five; 200 µM; covalent
T3 construct: gene ALB
T3 sequence (P02769 whole entry, the tested form may be a part): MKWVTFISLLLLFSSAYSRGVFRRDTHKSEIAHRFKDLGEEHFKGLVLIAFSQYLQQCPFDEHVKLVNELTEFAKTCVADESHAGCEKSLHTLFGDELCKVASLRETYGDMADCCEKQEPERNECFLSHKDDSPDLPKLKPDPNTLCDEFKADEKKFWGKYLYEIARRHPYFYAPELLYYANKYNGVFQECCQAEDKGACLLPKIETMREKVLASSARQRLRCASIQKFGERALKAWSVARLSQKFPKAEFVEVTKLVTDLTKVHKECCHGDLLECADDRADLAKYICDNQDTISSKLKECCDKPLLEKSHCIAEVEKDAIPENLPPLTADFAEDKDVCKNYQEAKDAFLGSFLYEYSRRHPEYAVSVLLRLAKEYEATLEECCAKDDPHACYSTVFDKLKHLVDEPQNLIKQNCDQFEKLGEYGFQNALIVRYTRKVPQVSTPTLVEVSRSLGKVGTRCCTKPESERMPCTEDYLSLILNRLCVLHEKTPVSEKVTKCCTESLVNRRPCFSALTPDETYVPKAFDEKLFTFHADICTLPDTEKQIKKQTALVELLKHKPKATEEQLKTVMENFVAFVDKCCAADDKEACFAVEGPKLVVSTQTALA

[5] = molecular target: T4, OTUB2 (OTUB2A) (Homo sapiens, UniProt Q96DC9); parameters: Intact protein LC/MS covalent labelling, fragments in pools of five, 200 uM each, 4 °C; conditions: 24 h, 4 °C, pool of five; 200 µM; covalent
T4 construct: full length residues 1-234, E. coli BL21(DE3)-R3, His tag removed by TEV, construct 27312 Da
T4 sequence (Q96DC9 1-234): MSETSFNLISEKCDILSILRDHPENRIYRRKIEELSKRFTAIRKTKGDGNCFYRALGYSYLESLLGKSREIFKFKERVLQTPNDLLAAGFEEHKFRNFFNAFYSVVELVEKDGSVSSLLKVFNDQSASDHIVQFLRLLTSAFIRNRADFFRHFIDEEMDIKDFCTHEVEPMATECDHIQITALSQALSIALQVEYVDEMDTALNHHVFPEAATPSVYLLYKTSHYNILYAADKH

[6] = molecular target: T5, PCAF (Homo sapiens, UniProt Q92831); parameters: Intact protein LC/MS covalent labelling, fragments in pools of five, 200 uM each, 4 °C; conditions: 24 h, 4 °C, pool of five; 200 µM; covalent
T5 construct: gene KAT2B
T5 sequence (Q92831 whole entry, the tested form may be a part): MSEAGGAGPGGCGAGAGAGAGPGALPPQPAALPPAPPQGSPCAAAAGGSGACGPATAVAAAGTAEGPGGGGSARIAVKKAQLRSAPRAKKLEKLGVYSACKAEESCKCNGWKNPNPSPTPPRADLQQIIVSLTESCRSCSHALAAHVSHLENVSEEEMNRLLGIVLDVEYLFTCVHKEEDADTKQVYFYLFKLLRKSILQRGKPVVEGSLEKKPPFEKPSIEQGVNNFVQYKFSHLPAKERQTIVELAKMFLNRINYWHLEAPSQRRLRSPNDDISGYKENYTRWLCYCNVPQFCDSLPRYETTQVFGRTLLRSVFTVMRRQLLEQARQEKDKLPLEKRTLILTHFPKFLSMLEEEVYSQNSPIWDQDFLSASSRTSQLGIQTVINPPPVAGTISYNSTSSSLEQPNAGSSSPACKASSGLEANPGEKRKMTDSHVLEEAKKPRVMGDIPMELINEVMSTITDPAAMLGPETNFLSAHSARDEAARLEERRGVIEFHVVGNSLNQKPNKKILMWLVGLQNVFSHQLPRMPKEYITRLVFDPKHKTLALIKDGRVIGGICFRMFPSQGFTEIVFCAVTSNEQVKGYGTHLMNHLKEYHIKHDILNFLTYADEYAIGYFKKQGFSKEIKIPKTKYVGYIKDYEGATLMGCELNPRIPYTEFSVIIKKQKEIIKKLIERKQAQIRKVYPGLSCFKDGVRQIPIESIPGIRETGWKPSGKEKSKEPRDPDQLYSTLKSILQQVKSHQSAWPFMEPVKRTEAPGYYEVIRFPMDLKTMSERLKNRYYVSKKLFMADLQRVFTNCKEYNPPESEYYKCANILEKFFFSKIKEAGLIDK

[7] = in vitro; parameters: species or system CCD841, HEK293; conditions: human, hb2 cells, read-out: HB-2 Cells Viability (%)
[8] = in vitro; parameters: species or system HB2, HEK293; conditions: human, ccd841 cells

| Compound | viability at 48 h, 10 µM [1] [%] | NNMT [2] | NUDT7 [3] | BSA [4] | OTUB2 [5] | PCAF [6] | viability at 48 h, 10 µM [7] [%] | viability at 48 h, 10 µM [8] [%] |
| --- | --- | --- | --- | --- | --- | --- | --- | --- |
| O=C(CCl)N(c1ccccc1)C1CCS(=O)(=O)C1 (stereo not shown) [PCM-0102755] | 16.7 | 0 | 0.17 | 0 | 0 | 0 | 28.5 | 20.4 |
| CNC(=O)c1ccc(NC(=O)CCl)cc1 [PCM-0102267] | 2.2 | 0 | 0 | 0 | 0 | 0 | 20 | 32.5 |
| Cc1cc(NC(=O)CCl)n(-c2ccccc2F)n1 [PCM-0103066] | 36 | 0 | 0 | 0 | 0.44 | 0 | 64 | 65.3 |
| CC1(C)CCCN1C(=O)CCl [PCM-0103060] | 74.5 | 0 | 0 | 0 | 0 | 0 | 104 | 92.4 |
| CC(NC(=O)CCl)C(=O)N(C)C (stereo not shown) [PCM-0102754] | 83.7 | 0 | 0 | 0 | 0 | 0 | 96 | 101 |
| Cl.O=C(CCl)N1CCN(Cc2ccc3c(c2)CCO3)CC1 [PCM-0102814] | 37.6 | 0.24 | 0 | 0.11 | 0 | 0 | 22.2 | 58.5 |
| COc1ccc2nc(NC(=O)CCl)sc2c1 [PCM-0102330] | 39.7 | 0.71 | 1 | 0 | 0 | 0 | 32.7 | 44.6 |
| C=CC(=O)N1CCCCC1C(=O)O (stereo not shown) [PCM-0102507] | 95.6 | 0 | 0 | 0 | 0 | 0 | 101 | 109 |
| C=CC(=O)N1CCn2nc(C)nc2C1 [PCM-0102605] | 88.4 | 0 | 0 | 0 | 0 | 0 | 102 | 104 |
| CC(NC(=O)CCl)c1ccc2c(c1)CC(=O)N2 (stereo not shown) [PCM-0102816] | 74.8 | 0 | 0.22 | 0 | 0.29 | 0 | 94.8 | 86 |
| C=CC(=O)N1CCC(Oc2cnc3ccccc3n2)CC1 [PCM-0102925] | 86.8 | 0 | 0 | 0 | 0 | 0 | 107 | 102 |
| Cc1ccc(CNC(=O)CCl)cc1 [PCM-0102660] | 93.6 | 0 | 0 | 0 | 0.63 | 0 | 87.4 | 80.3 |
| O=C(CCl)NN1C(=O)NC2(CCCCC2)C1=O [PCM-0102424] | 103 | 0 | 0.06 | 0 | 0 | 0 | 95 | 94.7 |
| C=CC(=O)N1CCc2sccc2C1c1cccs1 (stereo not shown) [PCM-0102640] | 98.7 | 0 | 0 | 0 | 0 | 0 | 97.9 | 115 |
| C=CC(=O)Nc1cccc(C(F)(F)F)c1 [PCM-0102573] | 108 | 0 | 0 | 0 | 0 | 0 | 103 | 105 |
| Cc1nc(C2(NC(=O)CCl)CCCCCC2)no1 [PCM-0102944] | 129 | 0 | 0 | 0 | 0 | 0 | 103 | 113 |
| C=CC(=O)N1CCC(CS(C)(=O)=O)CC1 [PCM-0102651] | 100 | 0 | 0 | 0 | 0 | 0 | 105 | 108 |
| O=C(CCl)N=c1sccn1Cc1cccc2ccccc12 [PCM-0102842] | 5.2 | 0 | 0 | 0 | 0 | 0 | 8.4 | 4.2 |
| COc1ccccc1C(=O)NC(=O)CCl [PCM-0102574] | 118 | 0 | 0 | 0 | 0 | 0 | 104 | 127 |
| O=C(CCl)Nc1ccccc1Cl [PCM-0102152] | 76.1 | 0 | 0 | 0 | 0.2 | 0 | 75.4 | 78.5 |
